Measurements as given in US10519107B2, “Sulfonamide compounds and their use as STAT5 inhibitors” (Governing Council of the University of Toronto, priority 2014, dated 2019).

Legend:
[1] = molecular target: T1, wildtype STAT5B protein (SH2 domain) (Homo sapiens, UniProt P51692); assay: Fluorescence polarization competitive binding, STAT5b; conditions: FP; for IC50: 5-FAM-GpYLVLDKW 10 nM, STAT5B 250 nM; for Ki: converted from IC50 with Equation 1
T1 sequence (P51692 1-787): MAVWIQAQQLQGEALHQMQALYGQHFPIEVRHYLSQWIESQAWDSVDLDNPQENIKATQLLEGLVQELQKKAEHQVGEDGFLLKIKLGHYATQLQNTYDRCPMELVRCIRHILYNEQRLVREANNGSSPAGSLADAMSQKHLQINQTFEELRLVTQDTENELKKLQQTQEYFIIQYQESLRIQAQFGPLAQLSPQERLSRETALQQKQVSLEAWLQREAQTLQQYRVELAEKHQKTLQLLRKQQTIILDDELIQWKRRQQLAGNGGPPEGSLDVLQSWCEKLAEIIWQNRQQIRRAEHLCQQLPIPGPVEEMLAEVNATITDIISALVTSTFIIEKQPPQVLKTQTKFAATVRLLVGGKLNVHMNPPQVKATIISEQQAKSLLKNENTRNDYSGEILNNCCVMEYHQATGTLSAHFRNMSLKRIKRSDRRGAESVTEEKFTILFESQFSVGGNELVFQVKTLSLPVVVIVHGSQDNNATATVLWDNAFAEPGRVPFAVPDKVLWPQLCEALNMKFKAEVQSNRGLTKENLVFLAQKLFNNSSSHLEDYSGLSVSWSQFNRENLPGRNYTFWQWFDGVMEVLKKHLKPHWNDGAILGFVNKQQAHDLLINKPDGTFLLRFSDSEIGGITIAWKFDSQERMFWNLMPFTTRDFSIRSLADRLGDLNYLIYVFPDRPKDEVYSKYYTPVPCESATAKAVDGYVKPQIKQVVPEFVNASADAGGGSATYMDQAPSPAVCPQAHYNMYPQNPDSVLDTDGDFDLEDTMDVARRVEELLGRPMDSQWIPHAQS
Procedure: (§1) Fluorescence assays were performed in flat black 384-well plates (Corning) and fluorescence polarization measurements were taken with the Infinite M1000 machine (Tecan, Crailsheim, Germany). The buffer conditions for all assays were 20 mM HEPES, 50 mM NaCl, 1 mM EDTA, 2 mM dithiothreitol, pH 7.5 and the final DMSO concentration in the wells was kept constant at 10%.
The point at which 80% of the fluoresceinated-phosphopeptide was bound was used as the optimal protein concentration required for the competitive fluorescent polarization assays.
Compounds were titrated at concentrations ranging from 1->60,000 nM and incubated for a further 15 minutes at which point fluorescence polarization measurements were taken in triplicate. The final well concentrations of the fluoresceinated-phosphopeptide and STAT5B were 10 nM and 250 nM, respectively.
The resulting fluorescence polarization measurements were normalized and plotted against compound concentration on a logarithmic scale. The raw data was fitted with a standard dose-normalized response inhibition curve using GraphPad Prism 6 software.
(§2) Modified Cheng-Pruskoff equation containing a correction factor for protein concentration.

wildtype STAT3 protein = wildtype STAT3 protein (Homo sapiens, UniProt P40763); assay: Fluorescence polarization competitive binding, STAT3; conditions: FP; converted from IC50 with Equation 1
Procedure: as §1, with “Binding of compounds of the disclosure to the STAT5b SH2 domain was assessed using fluorescence polarization assays similar to those previously reported.^15 Analogous assays were also performed with STAT3 protein to determine the specificity of the compounds (13a-d). Fluorescence” for “Fluorescence”
Calibration curves for the wildtype STAT3 and STAT5b proteins were derived by incubating a 10 nM final concentration of fluoresceinated-phosphopeptide (5-FAM-pYLPQTC (SEQ ID NO:1) and 5-FAM-GpYLVLDKW (SEQ ID NO:2) for STAT3 and STAT5B, respectively), which are known to bind the SH2 domains, with increasing concentrations of protein (as shown in FIG. 3). The point at which 80% of the fluoresceinated-phosphopeptide was bound was used as the optimal protein concentration required for the competitive fluorescent polarization assays.
For the STAT5b fluorescence polarization assays, the 5-FAM-GpYLVLDKW (SEQ ID NO:2) peptide and STAT5b protein were first incubated for 30 minutes at room temperature. Compounds were titrated at concentrations ranging from 1->60,000 nM and incubated for a further 15 minutes at which point fluorescence polarization measurements were taken in triplicate. The final well concentrations of the fluoresceinated-phosphopeptide and STAT5B were 10 nM and 250 nM, respectively. The same protocol was used for the analogous STAT3 FP assays, except that the 5-FAM-pYLPQTC (SEQ ID NO:1) peptide was used as a probe and the final STAT3 concentration was 150 nM in each well.
The resulting fluorescence polarization measurements were normalized and plotted against compound concentration on a logarithmic scale. The raw data was fitted with a standard dose-normalized response inhibition curve using GraphPad Prism 6 software. The IC50 values were converted to Ki values using Equation 1, which corrects for protein concentration and is a more accurate determination of inhibitory constants in a fluorescence polarization assay than the Cheng-Pruskoff equation.^15 All inhibitory constants and calculated Ki values are summarized in Table 1.
as §2

Chain of wildtype STAT3 protein (P40763 whole entry, species assumed, the tested form may be a part): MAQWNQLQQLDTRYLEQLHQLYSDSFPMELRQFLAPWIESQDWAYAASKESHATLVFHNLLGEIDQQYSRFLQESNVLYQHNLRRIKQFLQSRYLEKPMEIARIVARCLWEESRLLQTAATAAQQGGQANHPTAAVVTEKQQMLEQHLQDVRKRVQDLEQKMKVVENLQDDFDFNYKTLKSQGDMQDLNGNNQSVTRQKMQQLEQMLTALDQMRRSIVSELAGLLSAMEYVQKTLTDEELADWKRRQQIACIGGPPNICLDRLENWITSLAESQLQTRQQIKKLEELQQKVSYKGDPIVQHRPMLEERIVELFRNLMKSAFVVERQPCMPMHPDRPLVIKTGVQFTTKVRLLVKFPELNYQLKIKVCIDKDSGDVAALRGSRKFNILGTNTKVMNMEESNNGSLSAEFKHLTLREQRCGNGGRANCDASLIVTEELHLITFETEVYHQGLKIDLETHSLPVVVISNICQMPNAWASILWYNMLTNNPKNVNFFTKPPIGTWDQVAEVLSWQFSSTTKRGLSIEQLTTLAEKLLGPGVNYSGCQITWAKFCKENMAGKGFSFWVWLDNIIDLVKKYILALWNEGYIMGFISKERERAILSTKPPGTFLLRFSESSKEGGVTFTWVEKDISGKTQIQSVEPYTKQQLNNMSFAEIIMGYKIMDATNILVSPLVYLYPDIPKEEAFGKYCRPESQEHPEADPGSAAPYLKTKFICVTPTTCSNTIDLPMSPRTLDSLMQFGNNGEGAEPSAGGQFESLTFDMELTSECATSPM

Row | Compound | IC50 [1] [µM] | Ki [1] [µM] | Ki (wildtype STAT3 protein) [µM]
1 | Cc1cc(C)c(S(=O)(=O)N(CC(=O)N(Cc2cc(C(C)(C)C)cc(C(C)(C)C)c2)c2ccc(C(=O)O)c(O)c2)Cc2ccc(Cl)cc2)c(C)c1 [Compound 13b, 4-(2-((N-(4-chlorobenzyl)-2,4,6-trimethylphenyl)sulfonamido)-N-(3,5-di-tert-butylbenzyl)acetamido)-2-hydroxybenzoic Acid] | 6.53 | 2.57 | > 60
2 | O=C(O)c1ccc(N(Cc2ccc3ccccc3c2)C(=O)CN(Cc2ccc(Cl)cc2)S(=O)(=O)c2c(F)c(F)c(F)c(F)c2F)cc1O [Compound 13d, 4-(2-((N-(4-chlorobenzyl)-2,3,4,5,6-pentafluorophenyl)sulfonamido)-N-(-naphthalene-2-ylmethyl)acetamido)-2-hydroxybenzoic Acid] | 3.95 | 1.56 | > 60
3 | O=c1ccoc2ccccc12 [Chromone, reference compound] |  | > 60 | 
4 | Cc1cc(C)c(S(=O)(=O)N(CC(=O)N(Cc2ccc3ccccc3c2)c2ccc(C(=O)O)c(O)c2)Cc2ccc(Cl)cc2)c(C)c1 [Compound 13c, 4-(2-((N-(4-chlorobenzyl)-2,4,6-trimethylphenyl)sulfonamido)-N-(naphthalene-2-ylmethyl)acetamido)-2-hydroxybenzoic Acid] | 8.2 | 3.24 | > 60
